Non-standard residues stand in square brackets, D forms with d. Residues, ends and D or L forms follow the SMILES beside them. *: point of attachment. Cha = N[C@@H](CC1CCCCC1)C(=O)O; dCha = N[C@H](CC1CCCCC1)C(=O)O; dChg = N[C@@H](C(=O)O)C1CCCCC1; dPhg = N[C@@H](C(=O)O)c1ccccc1; pNA = O=[N+]([O-])c1ccc(N*)cc1
How the values were obtained:
Assay type in all cases: biochemical
Humanthrombin = molecular target: T1, Humanthrombin (Homo sapiens, UniProt P00734); experiment: Cleavage of chromogenic substrate by human NIH thrombin; settings: 1 NIH-Einheit human thrombin, per min; Substratkonzentration 2 x 10^-4 molar
T1 construct: Humanplasmin und hu-manem NIH-Thrombin
Excerpt: (§1) Bei der Messung des durch die enzymatische Hydrolyse des Substrates gebildeten Spaltproduktes RrNH2 geht man von der Voraussetzung aus, dass das Spaltprodukt ein UV-Spektrum besitzt, das von demjenigen des Substrates verschieden und in Richtung höherer Wellenlängen verschoben ist. Die Absorption des Substrates bei 405 nm ist praktisch Null. p-Nitroanilin als Spaltprodukt weist ein Absorptionsmaximum bei 380 nm und einen molaren Extinktionskoeffizienten von 13'200 auf. Bei 405 nm ist der Extinktionskoeffizient nur wenig niedriger, d.h. […] Der Grad der enzymatischen Hydrolyse des Substrates, welcher der Menge des abgespaltenen p-Nitroanilins proportional ist, lässt sich durch spektrophotometrische Messung bei 405 nm bestimmen. Auch bei Anwesenheit eines Ueberschusses an Substrat wird die Messung bei 405 nm nicht gestört.
(§2) Bei den Substraten, die als chromogene Gruppe eine 2-Naphthylamino-, 4-Methoxy-2-naphthylamino-, 4-Methyl-cumaryl-(7)-amino- oder 1,3-Di(methoxycarbonyl)-phenyl-(5)-amino-Gruppe enthalten, wird die Menge des Spaltproduktes R-NH2 durch Fluoreszenzspektrophotometrie gemessen. In einem aus Enzym, Puffer und Substrat bestehenden Testsystem misst man kontinuierlich das energieärmere emittierte Licht bei 400-470 nm, nachdem man das gebildete fluoreszierende Spaltprodukt mit energiereicherem Licht erregt hat. Die pro Zeiteinheit gebildete Menge Spaltprodukt ist ein Mass für die vorhandene Enzymaktivität. 1 µMol Spaltprodukt pro Minute entspricht definitionsgemäss 1 Enzym-Einheit, bezogen auf ein gegebenes Substrat.

[1] = molecular target: T2, Submandibularis-Kallikrein (Homo sapiens, UniProt P06870); experiment: Cleavage of chromogenic substrate by submandibular (glandular) kallikrein in human sputum; settings: 1 ml human sputum, per min; Substratkonzentration 2 x 10^-4 molar
T2 construct: Man mischt 0,5 ml Sputum mit 2 ml TRIS-Imidazol-Puffer; from tissue; host or cells: human sputum
Description: 2. Bestimmung des Glandulärkallikreins im Sputum: • Man mischt 0,5 ml Sputum mit 2 ml TRIS-Imidazol-Puffer (Ionenstärke 1,0) und präinkubiert die Mischung 5 Min. bei 37°C. Das Inkubat wird zentrifugiert. In eine Testküvette wird 1,5 ml dest. H2O von 37°C vorgelegt und mit 0,25 ml des Zentrifugats versetzt. Die Komponenten werden gut gemischt. Dann wird 0,2 ml 2 x 10-^3 molare wässrige Substratlösung zugesetzt und gemischt. Dann wird bei 405 nm die Extinktions- änderung kontinuierlich mittels eines Schreibers während 5-10 Min. verfolgt. Aus dem ermittelten Δ OD pro Min. wird mittels der nachstehenden Formel die Kallikreinaktivität pro ml Sputum in mU errechnet: [formula] • F = 5 • V = 1,95 • v = 0,25 • 1 U (Einheit) = Enzymmenge, die während 1 Min. 1 µMol Substrat unter optimalen oder sonst festgelegten Bedingungen in Bezug auf pH, Ionenstärke, Temperatur und Substratkonzentration zu spalten vermag
as §1, with “gestört. […]” for “gestört.”

Humanplasmin = molecular target: T3, Humanplasmin (Homo sapiens, UniProt P00747); experiment: Cleavage of chromogenic substrate by human plasmin; settings: 1 CU-Einheit human plasmin, per min; Substratkonzentration 2 x 10^-4 molar
T3 construct: da bei der Aktivierung aus 1 Molekül Plasminogen 1 Molekül Plasmin entsteht
Description: 3. Bestimmung von Plasmin:
Man mischt 1,7 ml TRIS-Imidazol-Puffer (pH 7,5, Ionenstärke 0,2) bei 37°C mit 0,1 ml einer Lösung von Plasmin in 25%igem Glycerin und inkubiert die Mischung während 1 Min. bei 37°C. Dann gibt man der Mischung 0,2 ml einer wässrigen 2 x 10^-3 molaren Substxatlösung von 37°C zu und durchmischt das Ganze schnell. Man ermittelt dann kontinuierlich die pro Zeiteinheit aus dem Substrat freigesetzte Menge des Spaltproduktes R-NH2. Aus dem pro Min. ermittelten Wert berechnet man dann die Plasminaktivität pro ml Probe in mU nach der folgenden Formel: [formula] • ΔE = pro Min. freigesetzte Menge des Spaltproduktes • V = Totalvolumen des Testansatzes • v = Volumen der Probe • = Extinktionskoeffizient dividiert durch 1000
as §1, §2

Urinkallikrein = molecular target: T4, Urinkallikrein (Homo sapiens, UniProt P06870); experiment: Cleavage of chromogenic substrate by urinary kallikrein in human urine; settings: 1 ml human urine (pooled morning urine of healthy persons), per min; Substratkonzentration 2 x 10^-4 molar
T4 construct: 1 ml Urin und 1 ml TRIS-Imidazol-Puffer mit pH 7,9; from tissue; host or cells: human urine
Description: 1. Bestimmung von Urinkallikrein.
1 ml Urin und 1 ml TRIS-Imidazol-Puffer mit pH 7,9 und Ionenstärke 1,0 werden 5 Min. bei 37°C inkubiert undcänn zentrifugiert, um Sedimente zu entfernen.
In einer-Plastikküvette werden 1,4 ml dest. H20 von 37°C und 0,4 ml des Zentrifugats gut gemischt. Zu dieser Mischung gibt man 0,2 ml einer 2 x 10^-3 molaren wässrigen Substratlösung und durchmischt die Komponenten schnell. Dieses Gemisch wird genau 15 Min. bei 37°C inkubiert. Dann wird dem Reaktionsgemisch 0,2 ml Eisessig zugemischt, um die Enzymreaktion zu unterbrechen. Zur Farbmessung verwendet man eine Vergleichsprobe (Blindprobe), die aus den gleichen Komponenten zusammengesetzt ist, wobei jedoch der Eisessig vor Zugabe des Substrates zugesetzt wird, um die Enzymreaktion zu verhindern. Dann wird bei 405 nm photometrisch oder spektrophotometrisch die Menge der gebildeten farbigen Verbindung RNH 2 aus der Differenz zwischen der Blindprobe und der zu bestimmenden Probe ermittelt. Aus dem ermittelten Wert wird die Urinkallikreinaktivität im Urin nach der folgenden Formel berechnet: [formula] • Δ OD = Zunahme der optischen Dichte bei 405 nm während 15 Min. • V = Totalvolumen des Bestimmungsansatzes = 2,2 ml • 1000 = Umrechnungsfaktor zur Umwandlung von U in mU • F = Verdünnungsfaktor des Urins (2) • v = Volumen der Probe = 0,4 ml • ε = Extinktionskoeffizient dividiert durch 1000 = 10,4
Bei der oben beschriebenen Bestimmungsmethode misst man somit die Summe der Aktivitäten von Urinkallikrein und Urokinase. Um die genaue Urinkallikreinaktivität zu erhalten, muss man die Urokinaseaktivität abziehen, welche dadurch bestimmt werden kann, dass man in einem Vergleichsversuch durch Zugabe von 0,075 Einheiten Trypsininhibitor (Trypsininhibitor aus Rinderlunge) pro ml Puffer die Urinkallikreinaktivität vollständig hemmt und nur die Urokinaseaktivität misst.
as §1, §2

T2 sequence (P06870 25-262): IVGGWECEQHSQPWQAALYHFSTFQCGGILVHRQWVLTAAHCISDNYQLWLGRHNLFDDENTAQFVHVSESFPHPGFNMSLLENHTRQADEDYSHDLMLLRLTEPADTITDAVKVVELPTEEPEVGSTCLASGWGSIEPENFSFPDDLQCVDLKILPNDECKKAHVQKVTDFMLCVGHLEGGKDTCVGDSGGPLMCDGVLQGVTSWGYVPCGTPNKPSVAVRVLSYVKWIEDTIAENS
T4 sequence (P06870 25-262): as above
T3 sequence (P00747 581-810 limits assumed): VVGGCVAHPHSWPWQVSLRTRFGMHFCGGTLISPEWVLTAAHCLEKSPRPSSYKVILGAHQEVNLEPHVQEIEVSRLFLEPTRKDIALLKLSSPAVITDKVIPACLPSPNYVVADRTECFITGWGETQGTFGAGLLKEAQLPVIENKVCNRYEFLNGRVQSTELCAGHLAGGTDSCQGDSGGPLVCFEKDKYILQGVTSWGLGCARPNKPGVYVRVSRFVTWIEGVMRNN
T3 sequence (P00747 97-580 partner limits assumed): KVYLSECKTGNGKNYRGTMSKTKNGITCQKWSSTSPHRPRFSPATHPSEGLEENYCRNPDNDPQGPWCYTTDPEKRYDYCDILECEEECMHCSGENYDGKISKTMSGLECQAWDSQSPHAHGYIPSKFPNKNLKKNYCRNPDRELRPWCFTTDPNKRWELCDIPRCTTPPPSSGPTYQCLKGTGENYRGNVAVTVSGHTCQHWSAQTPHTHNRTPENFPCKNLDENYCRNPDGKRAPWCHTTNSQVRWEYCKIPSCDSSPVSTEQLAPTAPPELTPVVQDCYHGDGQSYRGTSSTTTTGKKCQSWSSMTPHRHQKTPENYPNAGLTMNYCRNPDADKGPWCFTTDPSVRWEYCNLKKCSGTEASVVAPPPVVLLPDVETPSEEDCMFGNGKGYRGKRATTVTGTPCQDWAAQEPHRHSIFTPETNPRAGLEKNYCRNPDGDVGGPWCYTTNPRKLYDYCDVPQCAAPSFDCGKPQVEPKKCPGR

| Compound | Menge des durch 1 NIH-Einheit Thrombin pro Min. freigesetzten Spaltproduktes R-NH2 in Nanomol (Humanthrombin) (Humanthrombin) | Menge des durch 1 ml Humansputum pro Min. freigesetzten Spaltproduktes R-NH2 in Nanomol (Submandibularis-Kallikrein) [1] | Menge des durch 1 CU-Einheit Humanplasmin pro Min. freigesetzten Spaltproduktes R-NH2 in Nanomol (Humanplasmin) (Humanplasmin) [Nanomol] | Menge des durch 1 ml Humanurin pro Min. freigesetzten Spaltproduktes R-NH2 in Nanomol (Urinkallikrein) (Urinkallikrein) |
| --- | --- | --- | --- | --- |
| N=C(N)NCCC[C@H](NC(=O)[C@H](CC1CCCCC1)NC(=O)[C@H](N)C1CCCCC1)C(=O)Nc1ccc([N+](=O)[O-])cc1 [Beispiel 1, H-D-CHG-CHA-Arg-pNA.2HBr] (H-[dChg]-[Cha]-Arg-pNA) | 8,27 Nanomol | 12,9 Nanomol | 699 | 0,84 Nanomol |
| CC(C)C[C@H](NC(=O)[C@H](N)C1CCCCC1)C(=O)N[C@@H](CCCNC(=N)N)C(=O)Nc1ccc([N+](=O)[O-])cc1 [Beispiel 11, 2HBr.H-D-CHG-Leu-Arg-pNA] (H-[dChg]-Leu-Arg-pNA) | 33,9 Nanomol | 11,6 Nanomol | 381 | 0,60 Nanomol |
| CC(C)[C@@H](N)C(=O)N[C@@H](CC1CCCCC1)C(=O)N[C@@H](CCCNC(=N)N)C(=O)Nc1ccc([N+](=O)[O-])cc1 [Beispiel 12, 2HBr.H-D-Val-CHA-Arg-pNA] (H-[dV]-[Cha]-Arg-pNA) | 4,0 Nanomol | 30,5 Nanomol | 421 | 2,75 Nanomol |
| CC[C@@H](C)[C@@H](N)C(=O)N[C@@H](CC1CCCCC1)C(=O)N[C@@H](CCCNC(=N)N)C(=O)Nc1ccc([N+](=O)[O-])cc1 [Beispiel 13, 2HBr.H-D-Ile-CHA-Arg-pNA] (H-[dI]-[Cha]-Arg-pNA) | 7,44 Nanomol | 36,6 Nanomol | 446 | 2,67 Nanomol |
| CC(C)[C@@H](N)C(=O)N[C@@H](CC1CCCCC1)C(=O)N[C@@H](CCCCN)C(=O)Nc1ccc([N+](=O)[O-])cc1 [Beispiel 14, 2HBr.H-D-Val-CHA-Lys-pNA] (H-[dV]-[Cha]-Lys-pNA) | 0,35 Nanomol | 6,7 Nanomol | 505 | 1,02 Nanomol |
| CC[C@@H](C)[C@@H](N)C(=O)N[C@@H](CC1CCCCC1)C(=O)N[C@@H](CCCCN)C(=O)Nc1ccc([N+](=O)[O-])cc1 [Beispiel 15, 2HBr.H-D-Ile-CHA-Lys-pNA] (H-[dI]-[Cha]-Lys-pNA) | 0,39 Nanomol | 23,1 Nanomol | 440 | 2,50 Nanomol |
| N=C(N)NCCC[C@H](NC(=O)[C@H](Cc1ccccc1)NC(=O)[C@H](N)C1CCCCC1)C(=O)Nc1ccc([N+](=O)[O-])cc1 [Beispiel 16, 2HBr.H-D-CHG-Phe-Arg-pNA] (H-[dChg]-Phe-Arg-pNA) | 17,1 Nanomol | 32,2 Nanomol | 1200 | 3,31 Nanomol |
| N=C(N)NCCC[C@H](NC(=O)[C@H](CC1CCCCC1)NC(=O)[C@H](N)c1ccccc1)C(=O)Nc1ccc([N+](=O)[O-])cc1 [Beispiel 18, 2HBr.H-D-Ph'Gly-CHA-Arg-pNA] (H-[dPhg]-[Cha]-Arg-pNA) | 4,53 Nanomol | 8,5 Nanomol | 1200 | 0,67 Nanomol |
| N=C(N)NCCC[C@H](NC(=O)[C@@H]1CCCN1C(=O)[C@H](N)CC1CCCCC1)C(=O)Nc1ccc([N+](=O)[O-])cc1 [Beispiel 19, 2HBr.H-D-CHA-Pro-Arg-pNA] (H-[dCha]-Pro-Arg-pNA) | 54,4 Nanomol | 8,1 Nanomol | 1200 | 1,40 Nanomol |
| NCCCC[C@H](NC(=O)[C@H](CC1CCCCC1)NC(=O)[C@H](N)C1CCCCC1)C(=O)Nc1ccc([N+](=O)[O-])cc1 [Beispiel 20, 2HBr.H-D-CHG-CHA-Lys-pNA] (H-[dChg]-[Cha]-Lys-pNA) | 0,99 Nanomol | 4,4 Nanomol | 500 | 0,28 Nanomol |
| CC(C)C[C@H](NC(=O)[C@H](N)C1CCCCC1)C(=O)N[C@@H](CCCCN)C(=O)Nc1ccc([N+](=O)[O-])cc1 [Beispiel 21, 2HBr.H-D-CHG-Leu-Lys-pNA] (H-[dChg]-Leu-Lys-pNA) | 1,20 Nanomol | 2,2 Nanomol | 460 | 0,40 Nanomol |

— patent EP0019589A1, “Tripeptide derivatives and their use in a process for determining enzymes” (Pentapharm A.G., priority 1979, dated 1980)
